Assay results reported in ChEMBL document CHEMBL5370621, “Design, Synthesis, and Biological Evaluation of Novel Thioureidobenzamide (TBA) Derivatives as HBV Capsid Assembly Modulators” (J Med Chem, 2023).
pEC50: −log10 of the molar value.

Assays:
[1] = test system: Hepatitis B virus; assay: Antiviral activity against Hepatitis B virus infected in human HePAD38 cells assessed as inhibition of viral DNA replication by qPCR analysis; assay type: functional, organism-based
[2] = Cytotoxicity against human HePAD38 cells assessed as reduction in cell viability incubated for 72 hrs by CCK8 assay; assay type: toxicity, cell-based
[3] = Selectivity index, ratio of CC50 for cytotoxicity against human HePAD38 cells to EC50 for antiviral activity against Hepatitis B virus infected in human HePAD38 cells; assay type: toxicity, cell-based; settings: read-out: Ratio CC50/EC50

Compound | pEC50 [1] | CC50 at 72 h [2] [µM] | selectivity ratio [3]
O=C(Nc1cc(F)c(F)c(F)c1)c1cc(S(=O)(=O)N[C@H]2CCOC2)c(F)cc1Br | 5.33 | 88.2 | 18.8
C=CC(=O)Nc1cc(C(=O)Nc2ccc(F)c(C)c2)c(Br)cc1F | 5.65 | 7.98 | 3.59
Cc1cc(NC(=O)c2cc(NC(=O)NCc3cc(F)c(F)c(F)c3)c(F)cc2Br)ccc1F | 6.14 | 3.69 | 5.13
Cc1cc(NC(=O)c2cc(NC(=S)NCc3ccc(B(O)O)cc3)c(F)cc2Br)ccc1F | 7.54 | 3.08 | 106
O=C(Nc1cc(F)c(F)c(F)c1)c1cc(S(=O)(=O)N2CCC(O)CC2)c(F)cc1Br | 5.76 | 3.41 | 1.98
Cc1cc(NC(=O)c2cc(NC(=O)C3CCC3)c(F)cc2Br)ccc1F | 5.46 | 79.6 | 23
O=C(Nc1ccc(F)c(F)c1)c1cc(S(=O)(=O)N[C@H]2CCOC2)c(F)cc1Br | 6.03 | 63.7 | 67.8
O=C(Nc1cc(F)c(F)c(F)c1)c1cc(S(=O)(=O)NC2CCCC2)c(F)cc1Br | 6.96 | 34.5 | 313
Cc1ccc(C(=O)Nc2cc(C(=O)Nc3ccc(F)c(C)c3)c(Br)cc2F)cc1 | 6.28 | 20.9 | 40.1
Cc1cc(NC(=O)c2cc(NC(=O)Nc3ccc(C(F)(F)F)cc3)c(F)cc2Br)ccc1F | 5.28 | 3.5 | 0.67
Cc1cc(NC(=O)c2cc(NC(=O)NC3CCCC3)c(F)cc2Br)ccc1F | 5.24 | 5.52 | 0.96
C=C1[C@H](CO)[C@@H](O)C[C@@H]1n1cnc2c(=O)[nH]c(N)nc21 [ENTECAVIR ANHYDROUS] | 7.68 | 79.3 | 3780
O=C(Nc1ccc(F)cc1)c1cc(S(=O)(=O)N[C@H]2CCOC2)c(F)cc1Br | 5.62 | > 100 | > 41.8
Cc1cc(NC(=O)c2cc(NC(=O)C3CCCC3)c(F)cc2Br)ccc1F | 5.97 | > 100 | > 93.5
C=CCNC(=S)Nc1cc(C(=O)Nc2ccc(F)c(C)c2)c(Br)cc1F | 6.85 | 50.1 | 358
O=C(Nc1ccc(F)c(C(F)(F)F)c1)c1cc(S(=O)(=O)NC2CCCC2)c(F)cc1Br | < 4.70 | > 100 | –
Cc1cc(NC(=O)c2cc(NC(=O)NCc3ccc(O)cc3)c(F)cc2Br)ccc1F | 6.92 | 1.99 | 16.6
Cc1cc(NC(=O)c2cc(NC(=O)Nc3cc(F)c(F)c(F)c3)c(F)cc2Br)ccc1F | 5.93 | 2.59 | 2.19
Cc1cc(NC(=O)c2cc(NC(=O)c3ccc(C#N)cc3)c(F)cc2Br)ccc1F | 6.82 | 85.7 | 572
Cc1cc(NC(=O)c2cc(NC(=O)C(=O)NC3CCCC3)c(F)cc2Br)ccc1F | < 4.70 | 17.4 | < 0.87
Nc1ccn([C@@H]2CS[C@H](CO)O2)c(=O)n1 [LAMIVUDINE] | 5.40 | > 100 | > 25.1
Cc1cc(CNC(=S)Nc2cc(C(=O)Nc3ccc(F)c(C)c3)c(Br)cc2F)ccc1F | 7.00 | 3.71 | 37.1
N#Cc1cc(NC(=O)c2cc(S(=O)(=O)N[C@H]3CCOC3)c(F)cc2Br)ccc1F | 5.19 | > 100 | > 15.4
Cc1cc(NC(=O)c2cc(NC(=O)c3cccs3)c(F)cc2Br)ccc1F | 6.18 | 85.1 | 129
O=C(Nc1ccc(F)c(C(F)(F)F)c1)c1cc(S(=O)(=O)N[C@H]2CCOC2)c(F)cc1Br | 5.30 | > 100 | > 19.8

Compound | pEC50 [1] | CC50 at 72 h [2] [µM] | selectivity ratio [3]
CCC(CC)NC(=O)Nc1cc(C(=O)Nc2ccc(F)c(C)c2)c(Br)cc1F | 6.00 | 18.1 | 18.2
CCN(CC)S(=O)(=O)c1cc(C(=O)Nc2cc(F)c(F)c(F)c2)c(Br)cc1F | 6.34 | 4.47 | 9.72
CCNC(=S)Nc1cc(C(=O)Nc2ccc(F)c(C)c2)c(Br)cc1F | 6.74 | 43.6 | 242
Cc1cc(NC(=O)c2cc(NC(=O)N3CCC(O)CC3)c(F)cc2Br)ccc1F | 5.36 | > 100 | > 23
Cc1cc(NC(=O)c2cc(NC(=O)NC(C)C)c(F)cc2Br)ccc1F | 5.94 | 19.1 | 16.6
Cc1cc(NC(=O)c2cc(NC(=O)c3cc(F)c(F)c(F)c3)c(F)cc2Br)ccc1F | 6.08 | 18.1 | 21.8
N#Cc1cc(NC(=O)c2cc(S(=O)(=O)NC3CCCC3)c(F)cc2Br)ccc1F | 5.84 | 19.3 | 13.3
Cc1cc(NC(=O)c2cc(NC(=O)NC3CCC(O)CC3)c(F)cc2Br)ccc1F (centres undefined) | 5.13 | > 100 | > 13.6
Cc1cc(NC(=O)c2cc(S(=O)(=O)N[C@H]3CCOC3)c(F)cc2Br)ccc1F | 6.21 | > 100 | > 164
Cc1cc(NC(=O)c2cc(S(=O)(=O)NC3CCCC3)c(F)cc2Br)ccc1F | 6.36 | > 100 | > 227
Cc1cc(NC(=O)c2cc(NC(=O)c3ccc(F)cc3)c(F)cc2Br)ccc1F | 6.34 | 1.19 | 2.59
O=C(Nc1ccc(F)cc1)c1cc(S(=O)(=O)NC2CCCC2)c(F)cc1Br | 6.11 | 58 | 74.4
Cc1cc(CNC(=O)Nc2cc(C(=O)Nc3ccc(F)c(C)c3)c(Br)cc2F)ccc1F | 6.49 | 3.28 | 10.2
Cc1cc(NC(=O)c2cc(NC(=O)NCc3ccc(F)cc3)c(F)cc2Br)ccc1F | 6.47 | 18.5 | 54.4
Cc1cc(NC(=O)c2cc(NC(=O)NCc3cc(F)cc(F)c3)c(F)cc2Br)ccc1F | 6.74 | 3.72 | 20.7
Cc1cc(NC(=O)c2cc(NC(=O)C(=O)NC3CC3)c(F)cc2Br)ccc1F | 6.17 | 17 | 25.3
Cc1cc(NC(=O)c2cc(NC(=S)NCc3ccc(C(F)(F)F)cc3)c(F)cc2Br)ccc1F | 6.70 | 3.22 | 16.1
Cc1cc(NC(=O)c2cc(NC(=O)C3CCCCC3)c(F)cc2Br)ccc1F | 5.87 | 20.7 | 15.3
Cc1cc(NC(=O)c2cc(NC(=O)NCc3ccc(C(C)(C)C)cc3)c(F)cc2Br)ccc1F | 5.63 | > 100 | > 42.9
CCCc1ccc(C(=O)Nc2cc(C(=O)Nc3ccc(F)c(C)c3)c(Br)cc2F)cc1 | 6.24 | 32 | 55.1
Cc1cc(NC(=O)c2cc(NC(=O)c3ccc(C(F)(F)F)cc3)c(F)cc2Br)ccc1F | 6.00 | 4.88 | 4.83
Cc1cc(NC(=O)c2cc(NC(=S)NCc3cc(F)cc(F)c3)c(F)cc2Br)ccc1F | 6.66 | 3.61 | 16.4
Cc1cc(NC(=O)c2cc(NC(=O)NCc3ccc(C(F)(F)F)cc3)c(F)cc2Br)ccc1F | 6.48 | 11.8 | 35.6
Cc1cc(NC(=O)c2cc(NC(=S)NC(C)C(F)(F)F)c(F)cc2Br)ccc1F (centres undefined) | 7.62 | 17.1 | 710
C/C=C/C(=O)Nc1cc(C(=O)Nc2ccc(F)c(C)c2)c(Br)cc1F | 5.70 | 28.5 | 14.4
